A short description of data set [1]: Glucuronidation by human liver microsomes (HLM). Format: in vitro ADME. As to conditions: pooled human liver microsomes (HLM), pH 7.4; human hepatic microsomes. Here is the method: (§1) A commercial HLM pool (cat no:452210, BD Gentest, Bedford, MA) and human intestine microsomes (HIM) pool (lot. no 1110189, XenoTech, Kansas City, KS) were purchased. Pig liver samples were prepared from untreated female pigs that were used for practicing surgical procedures at the University of Kuopio (currently: University of Eastern Finland, Kuopio campus). Other animal liver microsomes were prepared as described previously.[41] The Ethics Committee for Animal Experiments, University of Kuopio, approved these experiments.
(§2) The incubation mixtures for glucuronidation assays contained 100 mM Tris-HCl buffer pH 7.4, 2.5 mM MgCl2, 0.5 mM UDPGA, recombinant UGT, or microsomes as the enzyme source and 0–15 μM of the test aglycone substrate. When the incubation mixtures contained microsomes, alamethicin was used at a final concentration of 12.5 μg/mL, but it was not included in the recombinant enzyme assays.[43] In the first experiments three negative control samples were tested, namely (i) without the substrate 7-hydroxycoumarin derivative, (ii) without the cofactor UDPGA, or (iii) without the enzyme source. In subsequent experiments, the control samples lacked the enzyme source since it gave the highest fluorescence background. Preliminary experiments were done under different conditions than most of the later assays, namely in 2.5 mL of 100 mM phosphate buffer pH 7.4, containing 500 μg pig liver microsomes, 1.0 μM compound 6 and 0.5 mM UDPGA, at room temperature. Fluorescence spectra (excitation 200–420 nm; emission 400–600 nm) or fluorescence decrease at 390 nm excitation and 460 nm emission, were measured in these preliminary experiments, using a Shimadzu RF-5000 spectrophotofluorometer.
(§3) Most of the glucuronidation assays were carried out in 96 multiwell plate format, and incubations were carried out in 100 μL and at 37 °C, in the presence of Tris–HCl buffer pH 7.4, UDPGA, and the tested 7-hydroxycoumarin derivative, at the indicated concentrations. Fluorescence decline in the multiwell plate experiments was monitored every other minute, for 40 min, using an excitation filter at 405 nm and detection at 460 nm, in a Victor2 1420 Multilabel counter (PerkinElmer, Life Sciences, Turku, Finland). The fluorescence values were transformed into molarity using the aglycone substrates for making the respective standard curves. Slopes of the substrate concentration decrease per minute were calculated using linear regression analysis, in which the linear part of the kinetic assay indicated the glucuronidation rate. Enzyme catalyzed glucuronidation rate was calculated by subtracting the blank value from the full reaction value. The intra-assay variability of the kinetic assays was 6% when compound 6 was used as the aglycone substrate. Kinetic analyses were also performed in the same 96 multiwell plates format, with excitation filter at 405 nm and detection at 460 nm, using 6–8 different substrate concentrations per substrate and two different protein concentrations for both the wild-type and mutant UGT1A10. The higher concentrations, 13.5 mg/L for UGT1A10 and 12.0 mg/L for the UGT1A10 mutant, were used when the substrates were HFC, compounds 4 and 6, whereas the lower protein concentrations, 6.75 and 6.0 mg/L for UGT1A10 and the mutant, respectively, were used when the substrates were compounds 1, 2, 3, and 5.

The test system of data set [2] is human liver microsomes (HLM). The data set can be described thus: Glucuronidation by human liver microsomes (HLM). The class given is in vitro ADME. As to the method: as §1, §2, §3
In a further data set the test system is human UGTs. The data set can be described thus: Recombinant human UGT screen: glucuronidation rates across human UGTs. The class given is biochemical. The settings on record: 10 μM aglycone; other UGTs at very low rates. Here is the method: Recombinant human UGTs 1A1, 1A3, 1A6, 1A7, 1A8, 1A9, 1A10, 2A1, 2A2, 2A3, 2B4, 2B10, 2B7, and 2B17 were produced, as His-tagged proteins, in baculovirus-infected insect cells as previously described.[37]−[39] The relative expression level of each of these recombinant UGTs was evaluated by immunodetection, using monoclonal antibody against the His-tag, as described elsewhere.[40] A numeric value of 1.0 was given to the expression level of UGT1A8 and the relative expression level of each of the other UGTs was related to this value. Normalized activities were obtained by dividing the glucuronidation rate values by the relative expression level of the tested UGT. In addition, UGTs 1A4, 2B10, and 2B15 were purchased from Corning Life Sciences (New York) and are marked, in Figure 5, with a “C” to indicate that they are commercial enzymes. The expression levels of the UGTs in the commercial samples could not be determined, so their protein concentration was used to calculate the reaction rate.
as §2, §3

Data set [3] concerns the target T1, UGT1A10 mutant 1A10-H210M (Homo sapiens, UniProt Q9HAW8, H210M).
T1 construct: His-tag; made in house; host or cells: baculovirus-infected SF9 insect cells
T1 sequence (Q9HAW8 26-530 H210M): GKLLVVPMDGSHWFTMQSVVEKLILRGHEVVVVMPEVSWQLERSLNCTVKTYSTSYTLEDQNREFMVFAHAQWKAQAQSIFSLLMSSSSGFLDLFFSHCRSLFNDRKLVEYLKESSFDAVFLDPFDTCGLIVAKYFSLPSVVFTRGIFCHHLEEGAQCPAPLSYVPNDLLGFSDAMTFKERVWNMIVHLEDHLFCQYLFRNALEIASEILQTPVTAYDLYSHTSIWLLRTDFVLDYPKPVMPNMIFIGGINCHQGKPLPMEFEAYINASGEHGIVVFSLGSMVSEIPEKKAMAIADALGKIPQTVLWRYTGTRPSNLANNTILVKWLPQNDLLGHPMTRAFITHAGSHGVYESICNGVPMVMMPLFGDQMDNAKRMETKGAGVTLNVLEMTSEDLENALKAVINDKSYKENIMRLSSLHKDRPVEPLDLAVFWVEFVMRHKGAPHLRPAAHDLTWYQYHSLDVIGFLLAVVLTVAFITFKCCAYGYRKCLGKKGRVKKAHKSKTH
Description: Glucuronidation kinetics by UGT1A10 mutant 1A10-H210M (fluorescence decrease, 96-well plate). Format: biochemical. As to conditions: mutant versus wild-type UGT1A10. Here is the method: The UGT1A10 mutant 1A10-H210 M was prepared according to the QuikChange methodology, using the cloned UGT1A10 in pFastBac[42] as a template and the following two oligonucleotides:
The entire coding sequence of UGT1A10 in the mutant clone was sequenced, and subsequently, recombinant baculovirus was prepared and used to express the mutant enzyme in baculovirus-infected SF9 insect cells.
as §2, with “Preliminary experiments were done under different conditions than most of the later assays, namely in 2.5 mL of 100 mM phosphate buffer pH 7.4, containing 500 μg pig liver microsomes, 1.0 μM compound 6 and 0.5 mM UDPGA, at room temperature.” left out
Most of the glucuronidation assays were carried out in 96 multiwell plate format, and incubations were carried out in 100 μL and at 37 °C, in the presence of Tris–HCl buffer pH 7.4, UDPGA, and the tested 7-hydroxycoumarin derivative, at the indicated concentrations. Fluorescence decline in the multiwell plate experiments was monitored every other minute, for 40 min, using an excitation filter at 405 nm and detection at 460 nm, in a Victor2 1420 Multilabel counter (PerkinElmer, Life Sciences, Turku, Finland). The fluorescence values were transformed into molarity using the aglycone substrates for making the respective standard curves. […] Enzyme catalyzed glucuronidation rate was calculated by subtracting the blank value from the full reaction value. […]

The nature of data set [4]: Absorbance spectra of coumarin derivatives. The class given is physicochemical. The settings on record: 10 μM, 100 mM Tris–HCl pH 7.4, 10% dimethyl sulfoxide. Here is the method: The absorbance spectra of 10 μM coumarin derivatives at 100 mM Tris–HCl pH 7.4 containing 10% dimethyl sulfoxide were measured using a Hitachi U-2000 Spectrophotometer (Tokyo, Japan). Excitation and emission fluorescence spectra of 0.1 μM coumarin derivatives in 100 mM Tris-HCl pH 7.4 were measured using a Shimadzu RF-5000 spectrophotofluorometer (Tokyo, Japan). The excitation spectra was from 200 to 420 at 460 nm emission and the emission spectra was from 400 to 600 at 390 nm excitation (data in Supplementary Table S1 and Figures S1 and S2). The effect of pH on fluorescence intensity was determined at 405 nm excitation and 460 nm emission, in the presence of 1.5% trichloroacetic acid, 100 mM phosphate buffers at pH 5, 6, 7, 8, and 9, or 1.6 M glycine–NaOH pH 10.4.

One compound from publication PMC6150735, “Molecular Docking-Based Design and Development of a Highly Selective Probe Substrate for UDP-glucuronosyltransferase 1A10” (Molecular Pharmaceutics, 2018) can be followed below.

“Also recorded” adds a separate entry of the source.

By Km is commonly meant the concentration of substrate that gives half-maximal velocity.

In the case of `O=c1oc2cc(O)ccc2cc1-n1cncn1` [Compound 6, 7-Hydroxy-3-(1H-1,2,4-triazol-1-yl)-2H-chromen-2-one], in data set [1], the Km was 82 µM. In data set [2] (10 μM aglycone), the “Glucuronidation by HLM (in words)” value is “not glucuronidated by HLM at all, or only at very low rates; also recorded: very low or below the detection limit”. Moreover, the Vmax in data set [2] (human hepatic microsomes) is 4.0 (2.6–5.4) μmol/(min* g prot). In addition, in the data set on human UGTs, the “Selectivity among human UGTs” value is reported as “selective for UGT1A10”. In addition, the “Change of Km by the H210M mutation (in words)” value in data set [3] is given as “considerably increased”. Further, in data set [4], the Amax worked out at 392 nm and the ε abs is reported as 20 500 cmx1*Mx1.
